In patent publication US20120245184A1 (Aderans Research Institute, Inc., priority 2006, published 2012) one finds EC50 data, which are given here for 18 molecules.

Counter-ions that a name gives are not always drawn.

Test [1] has as its system sonic hedgehog pathway. Put plainly: Human hedgehog reporter assay Daoy-GliLuc (DGL). In kind it is cell-based. An excerpt: (§1) Mouse (TM3: mouse Leydig cells; S12: mouse embryonic mesenchymal cells) and human (Daoy: human medulloblastoma cell; HepM: human embryonic palatal mesenchymal cell) cell lines are used to screen small molecules for their ability to modulate the activity of the sonic hedgehog pathway (Table 1, Table 2, and Table 3). Stable hedgehog pathway reporter cell lines are established by specific antibiotic selection following transfection of a reporter plasmid containing a luciferase gene located directly downstream from the gli promoter. Consequently, any observable changes in cellular luciferase activity may be attributed to changes in sonic hedgehog pathway activity in mouse and human cells, respectively, since gli is the major by-product of this pathway. To calculate activity, we generate an eleven point dose curve for each compound using 1:3 dilutions in 96 well assay plates. Each plate tested also contains low and high control to establish maximal pathway activation so to establish/compare a percentage activation of each tested compound (AMAX) on respective plates.
(§2) Stable hedgehog pathway reporter cell lines are established following specific antibiotic selection following transfection of a reporter plasmid
(§3) In short, typically cells are plated in MicroTiter-plates at 10,000-20,000 cells per well, in growth media (containing 10%-20% FBS). After 48-72 hrs (HGL and DGL respectively) the media in the assay plates is switched to low-serum containing media (0.5% FBS). At that time compounds are added (at 1-5 μM) to the assay plates, in the presence or absence of hedgehog protein (octyl-modified version; 1-5 ng/ml). After another 24 hrs of incubation, the media from the assay plates is discarded and replaced with luciferase assay-mix. Subsequently, plates are incubated at RT for ˜15-30 mins and then read in a luminometer. [note: addition of the Hedgehog protein, although not critical, will sensitize the assay allowing the identification of weak actives].

Test [2] deals with sonic hedgehog pathway. Description: Hedgehog reporter assay (gli-luciferase) in TM3 cells. In kind it is cell-based, mouse. As to conditions: TM3 mouse Leydig cells, gli-luciferase reporter; read-out: TM3 Avg. EC50.
Source text: as §1, §2, §3

In test [3] the test system is sonic hedgehog pathway. Put plainly: Human hedgehog reporter assay HEPM-GliLuc (HGL). In kind it is cell-based. The note with it: HepM human embryonic palatal mesenchymal cells, gli-luciferase reporter; read-out: HEPM Avg. EC50.
Source text: as §1, §2, §3

Test [4] has as its system sonic hedgehog pathway. Put plainly: Hedgehog reporter assay (gli-luciferase) in S12 cells. Format: cell-based. The note with it: S12 mouse embryonic mesenchymal cells, read-out: Mouse S12 Avg. EC50.
Source text: as §1, with “respective plates. Also we calculate EC50 values, or a concentration where the pathway will be exactly 50% activated, for each tested compound to determine potency. In these cell lines, compounds that register >20% AMAX values are considered active.” for “respective plates.”
as §2, §3

[5] abbreviates: Daoy human medulloblastoma cells, gli-luciferase reporter, read-out: Daoy Avg. EC50.
The mark [6] stands for this setting: Daoy human medulloblastoma cells, gli-luciferase reporter, read-out: Human Daoy (Gli-Luc) Avg. EC50.

With `CNC1CCC(N(Cc2cc(-c3ccc(C(=O)C(F)(F)F)cc3)ccc2OC)C(=O)c2sc3c(F)ccc(F)c3c2Cl)CC1` (stereo not shown) [Compound 349, 3-Chloro-4,7-difluoro-benzo[b]thiophene-2-carboxylic acid[4-methoxy-4′-(2,2,2-trifluoro-acetyl)-biphenyl-3-ylmethyl]-(4-methylamino-cyclohexyl)-amide trifluoroacetate], the EC50 in test [1] (setting [5]), in test [2] and in test [3] was under 50 nM each time.

For the molecule `CNC1CCC(N(Cc2cc(-c3cc(C)cc(C)c3)ccc2OC)C(=O)C2=C(Cl)c3c(C)ccc(F)c3C2)CC1` (stereo not shown) [Compound 350, 3-Chloro-4,7-difluoro-benzo[b]thiophene-2-carboxylic acid[5-(2,6-dimethyl-pyridin-4-yl)-2-methoxy-benzyl]-(4-methylamino-cyclohexyl)-amide dihydrochloride], the half-maximal effective concentration (EC50) in test [1] (setting [5]) is under 50 nM; in test [2] it was under 50 nM; in test [3], 50 to 250 nM.

For the molecule `CNC1CCC(N(Cc2cc(-c3ccc(N)nc3)ccc2OC)C(=O)c2sc3c(F)ccc(F)c3c2Cl)CC1` (stereo not shown) [Compound 352 (R18), 3-Chloro-4,7-difluoro-benzo[b]thiophene-2-carboxylic acid[5-(6-amino-pyridin-3-yl)-2-methoxy-benzyl]-(4-methylamino-cyclohexyl)-amide dihydrochloride], the EC50 in test [1] (setting [5]), in test [2] and in test [3] was under 50 nM each time.

Take `CN[C@H]1CC[C@@H](N(Cc2cc(-c3ccnc(N(C)C)c3)ccc2OC)C(=O)c2sc3c(C)ccc(C)c3c2Cl)CC1` [Compound 358, 3-Chloro-4,7-difluoro-benzo[b]thiophene-2-carboxylic acid[5-(2-dimethylamino-pyridin-4-yl)-2-methoxy-benzyl]-(4-methylamino-cyclohexyl)-amide dihydrochloride]: the EC50 in test [1] (setting [5]), in test [2] and in test [3] was under 50 nM each time.

Turning to `CNC1CCC(N(Cc2cc(-c3ccc(CS(C)(=O)=O)cc3)ccc2OC)C(=O)c2sc3c(F)ccc(F)c3c2Cl)CC1` (stereo not shown) [Compound 369, 3-Chloro-4,7-difluoro-benzo[b]thiophene-2-carboxylic acid(4′-methanesulfonylmethyl-4-methoxy-biphenyl-3-ylmethyl)-(4-methylamino-cyclohexyl)-amide hydrochloride], the concentration for a half-maximal effect (EC50) in test [1] (setting [6]) and in test [4] was under 50 nM in each case.

In the case of `CNC1CCC(N(Cc2cc(-c3ccc(NS(C)(=O)=O)cc3)ccc2OC)C(=O)c2sc3c(F)ccc(F)c3c2Cl)CC1` (stereo not shown) [Compound 370, 3-Chloro-4,7-difluoro-benzo[b]thiophene-2-carboxylic acid (4′-methanesulfonylamino-4-methoxy-biphenyl-3-ylmethyl)-(4-methylamino-cyclohexyl)-amide hydrochloride], the EC50 is under 50 nM in test [1] (Homo sapiens, Daoy, read-out: Human Daoy (Gli-Luc) Avg. EC50 (nM)) and under 50 nM in test [4].

As for `CNC1CCC(N(Cc2cc(-c3ccc(N(C)S(C)(=O)=O)cc3)ccc2OC)C(=O)c2sc3c(F)ccc(F)c3c2Cl)CC1` (stereo not shown) [Compound 371, 3-Chloro-4,7-difluoro-benzo[b]thiophene-2-carboxylic acid[4′-(methanesulfonyl-methyl-amino)-4-methoxy-biphenyl-3-ylmethyl]-(4-methylamino-cyclohexyl)-amide hydrochloride], the half-maximal effective concentration (EC50) in test [1] (setting [6]) and in test [4] was under 50 nM in each case.

Turning to `CNC1CCC(N(Cc2cc(-c3cc[n+]([O-])cc3)ccc2OC)C(=O)c2sc3c(F)ccc(F)c3c2Cl)CC1` (stereo not shown) [Compound 374, 4-(3-((3-chloro-4,7-difluoro-N-((1s,4s)-4-(methylamino)cyclohexyl)benzo[b]thiophene-2-carboxamido)methyl)-4-methoxyphenyl)pyridine 1-oxide], the EC50 in test [1] (setting [6]) and in test [4] was under 50 nM in each case.

As for `CN[C@H]1CC[C@H](N(Cc2cc(-c3cccnc3F)ccc2OC)C(=O)c2sc3c(F)ccc(F)c3c2Cl)CC1` [Compound 378, 3-Chloro-4,7-difluoro-benzo[b]thiophene-2-carboxylic acid[5-(2-fluoro-pyridin-3-yl)-2-methoxy-benzyl]-(4-methylamino-cyclohexyl)-amide], the EC50 in test [1] (setting [6]) and in test [4] was under 50 nM each time.

With `CN[C@H]1CC[C@H](N(Cc2cc(-c3ccc(F)nc3)ccc2OC)C(=O)c2sc3c(F)ccc(F)c3c2Cl)CC1` [Compound 379, 3-Chloro-4,7-difluoro-benzo[b]thiophene-2-carboxylic acid[5-(6-fluoro-pyridin-3-yl)-2-methoxy-benzyl]-(4-methylamino-cyclohexyl)-amide], the EC50 in test [1] (setting [6]) and in test [4] was under 50 nM in each case.

For the molecule `CN[C@H]1CC[C@H](N(Cc2cc(-c3cncc(F)c3)ccc2OC)C(=O)c2sc3c(F)ccc(F)c3c2Cl)CC1` [Compound 380, 3-Chloro-4,7-difluoro-benzo[b]thiophene-2-carboxylic acid[5-(5-fluoro-pyridin-3-yl)-2-methoxy-benzyl]-(4-methylamino-cyclohexyl)-amide], the EC50 in test [1] (setting [6]) and in test [4] was under 50 nM each time.

On to `CN[C@H]1CC[C@H](N(Cc2cc(-c3cccnc3F)ccc2OC)C(=O)c2sc3cccc(F)c3c2Cl)CC1` [Compound 381], for which the EC50 in test [1] (setting [6]) and in test [4] was under 50 nM each time.

Turning to `CN[C@H]1CC[C@H](N(Cc2cc(-c3ccc(F)nc3)ccc2OC)C(=O)c2sc3cccc(F)c3c2Cl)CC1` [Compound 382, 3-Chloro-4-fluoro-benzo[b]thiophene-2-carboxylic acid[5-(6-fluoro-pyridin-3-yl)-2-methoxy-benzyl]-(4-methylamino-cyclohexyl)-amide], the EC50 in test [1] (setting [6]) and in test [4] was under 50 nM throughout.

Consider `CN[C@H]1CC[C@H](N(Cc2cc(-c3cncc(F)c3)ccc2OC)C(=O)c2sc3cccc(F)c3c2Cl)CC1` [Compound 383, 3-chloro-4-fluoro-N-(5-(5-fluoropyridin-3-yl)-2-methoxybenzyl)-N-((1s,4s)-4-(methylamino)cyclohexyl)benzo[b]thiophene-2-carboxamide], for which the EC50 in test [1] (setting [6]) and in test [4] was under 50 nM in each case.

With `CNC1CCC(N(Cc2cc(-c3ccnc(F)c3)ccc2OC)C(=O)c2sc3c(F)ccc(F)c3c2Cl)CC1` (stereo not shown) [Compound 384, 3-Chloro-4,7-difluoro-benzo[b]thiophene-2-carboxylic acid[5-(2-fluoro-pyridin-4-yl)-2-methoxy-benzyl]-(4-methylamino-cyclohexyl)-amide], the EC50 in test [1] (setting [6]) and in test [4] was under 50 nM each time.

As to `CNC1CCC(N(Cc2cc(-c3ccnc(F)c3)ccc2OC)C(=O)c2sc3cccc(F)c3c2Cl)CC1` (stereo not shown) [Compound 385, 3-Chloro-4-fluoro-benzo[b]thiophene-2-carboxylic acid[5-(2-fluoro-pyridin-4-yl)-2-methoxy-benzyl]-(4-methylamino-cyclohexyl)-amide], the EC50 in test [1] (setting [6]) and in test [4] was under 50 nM in each case.

With `CN[C@H]1CC[C@@H](N(Cc2cc(-c3ccncc3F)ccc2OC)C(=O)c2sc3c(F)ccc(F)c3c2Cl)CC1` [Compound 386, 3-Chloro-4,7-difluoro-benzo[b]thiophene-2-carboxylic acid[5-(3-fluoro-pyridin-4-yl)-2-methoxy-benzyl]-(4-methylamino-cyclohexyl)-amide], the EC50 in test [1] (setting [6]) and in test [4] was under 50 nM throughout.

Regarding `CNC1CCC(N(Cc2cc(-c3ccncc3F)ccc2OC)C(=O)c2sc3cccc(F)c3c2Cl)CC1` (stereo not shown) [Compound 387, 3-Chloro-4-fluoro-benzo[b]thiophene-2-carboxylic acid[5-(3-fluoro-pyridin-4-yl)-2-methoxy-benzyl]-(4-methylamino-cyclohexyl)-amide], the EC50 in test [1] (setting [6]) and in test [4] was under 50 nM throughout.
